In patent publication US20190110472A1, “ACTIVE INGREDIENT COMPOSITIONS COMPRISING N-ALKENOYL-N-ALKYLGLUCAMIDES AND THE USE THEREOF” (Clariant International, Ltd., priority 2017, published 2019):

Assays:
[1] = Dynamic surface tension, bubble pressure method (BP2100 tensiometer, Krüss); type: physicochemical; details: for Dynamic surface tension [mN/m] 20 ms: surface age 20 ms; for Dynamic surface tension [mN/m] 50 ms: surface age 50 ms; for Dynamic surface tension [mN/m] 100 ms: surface age 100 ms; for Dynamic surface tension [mN/m] 200 ms: surface age 200 ms
Procedure: Dynamic surface tension was determined via the bubble pressure method (BP2100 tensiometer, Krüss). Given a timespan of relevance for the spray application of agrochemicals in aqueous dilution (called the surface age in the bubble pressure method) of 200 milliseconds (ms), the value for dynamic surface tension in [mN/m] correlates with the adhesion on plants that are difficult to wet, such as barley (cereal). A value of 50 mN/m (at 20-21° C.) with respect to water (72.8 mN/m) results in an improvement in the adhesion from “zero adhesion” (0%) to about 50% (Baur P., Pontzen R.; 2007; Basic features of plant surface wettability and deposit formation and the impact of adjuvant; in R. E. Gaskin ed. Proceedings of the 8th International Symposium on Adjuvants for Agrochemicals; Publisher: International Society for Agrochemical Adjuvants (ISAA), Columbus, Ohio, USA).

[2] = Droplet size distribution of spray (Malvern Spraytec, ID(3)12002 injector nozzle, 3 bar); type: physicochemical; details: summary of Table 4, no tankmix partner
Source text: A Malvern Spraytec “real-time spray sizing system” was used to determine the droplet size distribution. For this purpose, the system (STP5311, Malvern Instruments GmbH, Heidelberg, Germany) was installed in a specially constructed spray cabin, with the option of being able to model real spray applications as carried out in practice with freely adjustable pressure for various hydraulic nozzles and freely adjustable distances (nozzle-target surface). The spray cabin can be darkened and all disruptive parameters can be eliminated. For the measurements, the ID(3)12002 (Lechler) injector nozzles were used. The pressure set was varied, and mean pressure was kept constant at 3 bar for the measurements reported hereinafter. The temperature and relative air humidity varied between 21.5° C. and 29° C. and between 33% and 56% respectively. In each test series, tap water was measured as internal standard. […]
As a further measurement parameter, the proportion by volume of the droplets having diameter <210 μm (“Vol 210”) was determined and expressed in relation to the proportion by volume of droplets having diameter <105 μm (“Vol 210 / Vol 105”). In addition, the percentage reduction in the proportion by volume of droplets having diameter <105 μm in the case of use of spray liquids containing the test substances was calculated in comparison to the use of tap water as internal standard (“Red 105”).

apple leaf cuticles = experiment: Membrane penetration test of metribuzin through isolated apple leaf cuticles; type: in vitro ADME; details: Sencor 600 SC, metribuzin 2.25 g/L, 10° C./56% rel. air humidity
Procedure: The potential of the test substances, which is independent of the surfactant action, to promote foliar absorption of active agrochemical ingredients was determined in membrane penetration tests with apple leaf cuticles using the example of metribuzin. […] Efforts are therefore being made to find additives that promote wetting but only slightly increase the uptake of the active ingredient, such that only a minimum portion of the active ingredient is taken up into the leaf. The plant cuticle is a lipophilic solubility membrane (lipid membrane) without pores or holes, and the results described are also expected for other nonporous lipophilic solubility membranes with these or other electrolyte active ingredients. The principle of the method has been published (e.g. WO-A-2005/194844; Baur, 1997; Baur, Grayson and Schönherr 1999; Baur, Bodelon and Lowe, 2012), and only the specifics and differences in the method are elucidated hereinafter. The leaf cuticles were enzymatically isolated in the manner described in the literature from apple leaves of orchard trees in a commercial stone fruit growing facility near Frankfurt am Main in 2016. The stomata-free cuticles were first dried under air and then installed into stainless steel diffusion cells. After application to the original upper side of the leaf and evaporation of the test liquid, i.e. of the aqueous preparations of the active ingredients without or with the glucamide-containing spray liquids or comparative compositions, the diffusion cells were transferred into thermostatted blocks and charged with aqueous liquid. The water used to make up the aqueous test liquids was local tap water (of known composition). At regular intervals, aliquot samples were taken and the proportion of active ingredient penetrated was determined by HPLC. During the experiment, the temperature in the system (block, diffusion cells, liquids, etc.) and the air humidity above the spray deposit on the cuticle were known exactly and were monitored. […] In each case, the geometric mean values of the penetration for intact membranes at the mean measurement times are given. According to the variant (active ingredient×test additive/formulation), 7-8 repetitions were set up. The coefficient of variation was below 35%, which is a typical biological variability for penetration for numerous plants (Baur, 1997).

indicator plants = experiment: Plant compatibility after application to indicator plants; type: in vivo; details: concentrations of 0.1, 0.3, 0.8, 1.0, 1.5, 2 and 3 g/L
[3] = Appearance and stability of spray liquids after 24 h; type: physicochemical
Procedure: The composition of spray liquids A1-A18 is specified hereinafter. These spray liquids are produced by mixing the various test substances in water, and the appearance and stability of the spray liquid were assessed after 24 h.
The inventive alkenoylglucamides (A1 to A6) are self-emulsifying in the spray liquid and form cloudy homogeneous emulsions that are stable over 24 h. By contrast, spray liquids comprising non-inventive saturated alkylglucamides (A7-A13) of similar chain length are not phase-stable and flocculate.

| Compound | Dynamic surface tension [mN/m] 20 ms ([1]; amount 0.03 % by wt.) [mN/m] | Dynamic surface tension [mN/m] 20 ms ([1]; amount 0.1 % by wt.) [mN/m] | Dynamic surface tension [mN/m] 20 ms ([1]; amount 0.3 % by wt.) [mN/m] | Dynamic surface tension [mN/m] 50 ms ([1]; amount 0.03 % by wt.) [mN/m] | Dynamic surface tension [mN/m] 50 ms ([1]; amount 0.1 % by wt.) [mN/m] | Dynamic surface tension [mN/m] 50 ms ([1]; amount 0.3 % by wt.) [mN/m] | Dynamic surface tension [mN/m] 100 ms ([1]; amount 0.03 % by wt.) [mN/m] | Dynamic surface tension [mN/m] 100 ms ([1]; amount 0.1 % by wt.) [mN/m] | Dynamic surface tension [mN/m] 100 ms ([1]; amount 0.3 % by wt.) [mN/m] | Dynamic surface tension [mN/m] 200 ms ([1]; amount 0.03 % by wt.) [mN/m] | Dynamic surface tension [mN/m] 200 ms ([1]; amount 0.1 % by wt.) [mN/m] | Dynamic surface tension [mN/m] 200 ms ([1]; amount 0.3 % by wt.) [mN/m] | Plant compatibility (necroses or other symptoms such as leaf curl-up or deformation) (indicator plants) | other results |
| --- | --- | --- | --- | --- | --- | --- | --- | --- | --- | --- | --- | --- | --- | --- |
| CCC=CCCCCCCCC(=O)N(C)CC(O)C(O)C(O)C(O)CO (stereo not drawn) [Dodec-9-enoyl-N-methylglucamide] | 70.0 | 56.1 | 44.5 | 66.1 | 47.7 | 38.5 | 61.9 | 44.0 | 36.0 | 58.6 | 40.1 | 33.4 | no necroses or other symptoms | Lowering of the dynamic surface tension (in words) ([1]; summary of Table 2): particularly large; Effect on fine droplet content (in words) [2]: distinct reduction in the fine droplet content; Mean penetration for metribuzin after time in % 1 day (apple leaf cuticles; test substance 0.05 % by wt.): 2.9%; Mean penetration for metribuzin after time in % 2 days (apple leaf cuticles; test substance 0.05 % by wt.): 4.6%; Mean penetration for metribuzin after time in % 1 day (apple leaf cuticles; test substance 0.1 % by wt.): 3.9%; Mean penetration for metribuzin after time in % 2 days (apple leaf cuticles; test substance 0.1 % by wt.): 6.5%; Mean penetration for metribuzin after time in % 1 day (apple leaf cuticles; test substance 0.14 % by wt.): 5.7%; Mean penetration for metribuzin after time in % 2 days (apple leaf cuticles; test substance 0.14 % by wt.): 8.6% |
| CCCCCCCCC(=O)N(C)C[C@H](O)[C@@H](O)[C@H](O)[C@H](O)CO [N-methyl-N-nonanoylglucamine] | – | – | – | – | – | – | – | – | – | – | – | – | no necroses or other symptoms | – |
| C=CCCCCCCCC(=O)N(C)CC(O)C(O)C(O)C(O)CO (stereo not drawn) [dec-9-enoyl-N-methylglucamide] | – | – | – | – | – | – | – | – | – | – | – | – | – | Water solubility in the spray liquid [3]: completely water-soluble; Appearance ([3]; spray liquid in water, assessed after 24 h): clear transparent spray liquid; Dynamic surface tension [mN/m] 20 ms ([1]; amount 0.06 % by wt.): 70.2 mN/m; Dynamic surface tension [mN/m] 20 ms ([1]; amount 0.125 % by wt.): 66.4 mN/m; Dynamic surface tension [mN/m] 20 ms ([1]; amount 0.25 % by wt.): 59.7 mN/m; Dynamic surface tension [mN/m] 50 ms ([1]; amount 0.06 % by wt.): 68.9 mN/m; Dynamic surface tension [mN/m] 50 ms ([1]; amount 0.125 % by wt.): 63.7 mN/m; Dynamic surface tension [mN/m] 50 ms ([1]; amount 0.25 % by wt.): 56.6 mN/m; Dynamic surface tension [mN/m] 100 ms ([1]; amount 0.06 % by wt.): 67.6 mN/m; Dynamic surface tension [mN/m] 100 ms ([1]; amount 0.125 % by wt.): 61.8 mN/m; Dynamic surface tension [mN/m] 100 ms ([1]; amount 0.25 % by wt.): 55.5 mN/m; Dynamic surface tension [mN/m] 200 ms ([1]; amount 0.06 % by wt.): 67.4 mN/m; Dynamic surface tension [mN/m] 200 ms ([1]; amount 0.125 % by wt.): 61.0 mN/m; Dynamic surface tension [mN/m] 200 ms ([1]; amount 0.25 % by wt.): 54.1 mN/m |
| CCCCCCCCCCCC(=O)N(C)CC(O)C(O)C(O)C(O)CO (stereo not drawn) [dodecanoyl-N-methylglucamide] | 70.6 | 70.0 | 67.0 | 67.3 | 66.8 | 61.9 | 63.0 | 60.1 | 58.8 | 57.9 | 51.4 | 48.7 | – | – |
